In patent US20200046802A1, “THERAPEUTIC METHOD USING TOLEROGENIC PEPTIDES” (APITOPE INTERNATIONAL NV, priority 2017, published 2020):
Ends that are not written are not given here.

Assays:
[1] = system: subjects with Graves' disease; test: Open label upward titration study of ATX-GD-59, safety; assay type: in vivo, human; conditions: first 5 patients
Description: (§1) Safety and proof of principle study of ATX-GD-59 in male and female subjects with Graves' disease not currently treated with anti-thyroid therapy: An Open label study, with an upward titration over five dose levels administered by Intradermal injection.
(§2) There was an upward titration over five dose levels (injection(s) of 25, 50, 100, 400 and 800 μg) of ATX-GD-59 followed by injection(s) of 800 μg injected on five further occasions. All doses were based on the total peptide.
(§3) All doses were administered by intradermal injection at intervals of 14+/−3 days.
Subjects will be observed in the clinic for at least two hours after administration of the study drug and vital signs will be recorded at 15 minute intervals for the first hour and 30 minute intervals for the second hour. […]
Safety endpoints, which will be evaluated on an ongoing basis up to Week 22, are: • Injection site reactions as reported by the subjects in the diary card. • Occurrence of treatment related adverse events (Adverse Events), Serious Adverse Events, and laboratory abnormalities compared to baseline. • Results from the physical examination, and vital signs (reported on an ongoing basis and compared to baseline/screening). • Premature termination and reasons for premature termination from treatment and/or the study.

[2] = system: subjects with Graves' disease; test: Open label upward titration study of ATX-GD-59, TSHR antibody and free T3 levels; assay type: in vivo, human
Description: as §1, §2, §3
Criteria for Evaluation of the Secondary Objectives: • TSHR antibody levels. • Ratio of stimulatory vs inhibitory TSHR antibodies. • Free T3, free T4 and TSH serum levels.

ATX-GD-59: comprises the RNB-5D-K1 and RNB-9B peptides of SEQ ID NOs: 5 and 6; lyophilised equimolar mixture of two peptides (chain 1 KKKKYVSIDVTLQQLESHKKK; chain 2 GLKMFPDLTKVYSTD; not fully specified)
safety data analysed by DMC [1]: No safety issues were identified
T3, % change from SD1 to W18 ([2]; Subject 3101): 13.60%
TRAb, % change from SD1 to W18 ([2]; Subject 3101): 3.58%
TSI, % change from SD1 to W18 ([2]; Subject 3101): −30.32%
T3, % change from SD1 to W18 ([2]; Subject 3301): 21.4%
TRAb, % change from SD1 to W18 ([2]; Subject 3301): 16.60%
TSI, % change from SD1 to W18 ([2]; Subject 3301): −4.48%
T3, % change from SD1 to W18 ([2]; Subject 3402): −17.72%
TRAb, % change from SD1 to W18 ([2]; Subject 3402): −61.13%
TSI, % change from SD1 to W18 ([2]; Subject 3402): −57.89%
T3, % change from SD1 to W18 ([2]; Subject 3501): −22.39%
TRAb, % change from SD1 to W18 ([2]; Subject 3501): −30.33%
TSI, % change from SD1 to W18 ([2]; Subject 3501): −32.45%
T3, % change from SD1 to W18 ([2]; Subject 3503): −45.33%
TRAb, % change from SD1 to W18 ([2]; Subject 3503): −64.51%
TSI, % change from SD1 to W18 ([2]; Subject 3503): −61.71%
stimulating TRAB levels (TSI) ([2]; first 5 subjects): All subjects had decrease
subjects with decreases in T3 and TRAB ([2]; first 5 subjects): Three of 5
